This is an account of results in US20260137819A1 (Radionetics Oncology, Inc., priority 2022, published 2026).

The structures appear in SMILES notation.

The target of the test is T1, human follicle-stimulating hormone receptor (FSHR) (Homo sapiens, UniProt P23945).
T1 construct: host or cells: CHO-K1
T1 sequence (P23945 18-695): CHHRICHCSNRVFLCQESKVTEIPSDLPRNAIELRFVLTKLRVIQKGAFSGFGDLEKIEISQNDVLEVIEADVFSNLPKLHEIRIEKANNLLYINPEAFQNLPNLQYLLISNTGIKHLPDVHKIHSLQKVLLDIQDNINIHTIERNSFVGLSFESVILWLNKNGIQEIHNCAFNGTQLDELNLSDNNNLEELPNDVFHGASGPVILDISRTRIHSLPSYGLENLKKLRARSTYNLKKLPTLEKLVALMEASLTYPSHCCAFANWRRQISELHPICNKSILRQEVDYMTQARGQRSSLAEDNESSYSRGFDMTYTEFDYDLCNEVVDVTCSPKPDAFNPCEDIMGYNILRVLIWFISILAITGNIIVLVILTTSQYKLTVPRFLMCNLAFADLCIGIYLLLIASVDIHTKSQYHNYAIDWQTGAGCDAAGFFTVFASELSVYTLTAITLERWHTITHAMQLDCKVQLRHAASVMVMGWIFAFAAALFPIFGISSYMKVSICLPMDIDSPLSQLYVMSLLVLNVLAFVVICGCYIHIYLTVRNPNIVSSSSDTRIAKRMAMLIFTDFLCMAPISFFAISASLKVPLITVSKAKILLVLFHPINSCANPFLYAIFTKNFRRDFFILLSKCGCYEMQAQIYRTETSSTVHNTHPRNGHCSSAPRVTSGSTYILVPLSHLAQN
Briefly: Measurement of agonist cAMP production by activation of human FSHR. Format: cell-based. The note with it: CHO-K1 human FSHR cells, 30 minutes at 37° C., HTRF cAMP kit; read-out: hFSHR Agonist cAMP EC50. The essentials:
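cAMP output was measured by HTRF after 30 min at 37 °C agonist exposure (0–10,000 nM final) in stably FSHR-transfected CHO-K1 cells. Lysate cAMP was read off a standard curve and fitted to obtain half-maximal EC50.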
(In general: cAMP levels reflect the balance of adenylyl cyclase and phosphodiesterase activity.)
For the compound `COc1cc2c(cc1-c1cccc(NC(=O)C3OC(CNC(=O)CN4CCN(CC(=O)O)CCN(CC(=O)O)CCN(CC(=O)O)CC4)C(O)C(O)C3O)c1)-c1c(c(C(=O)N3CCOCC3(C)C)nn1-c1cc(Cl)cc(Cl)c1)CO2` [Compound 34, 2,2′,2″-(10-(2-((((2S,3R,4R,5R,6S)-6-((3-(1-(3,5-dichlorophenyl)-3-(3,3dimethylmorpholine-4-carbonyl)-7-methoxy-1,4-dihydrochromeno|4,3-c]pyrazol-8-yl)phenyl)carbamoyl)-3,4,5-trihydroxytetrahydro-2H-pyran-2-yl)methyl)amino)-2-oxoethyl)-1,4,7,10-tetraazacyclododecane-1,4,7-triyl)triacetic acid], the EC50 was 10 to 100 nM.
As for `COc1cc2c(cc1-c1cccc(NC(=O)C(CNC(=O)CCNC(=O)CN3CCN(CC(=O)O)CCN(CC(=O)O)CCN(CC(=O)O)CC3)CNC(=O)CCNC(=O)CN3CCN(CC(=O)O)CCN(CC(=O)O)CCN(CC(=O)O)CC3)c1)-c1c(c(C(=O)N3CCOCC3(C)C)nn1-c1cc(Cl)cc(Cl)c1)CO2` [Compound 35], the figure is more than 100 nM.
As for `COc1cc2c(cc1-c1cccc(NC(=O)CCNC(=O)CN3CCC(NC(=O)CN4CCN(CC(=O)O)CCN(CC(=O)O)CCN(CC(=O)O)CC4)CC3)c1)-c1c(c(C(=O)N3CCOCC3(C)C)nn1-c1cc(Cl)cc(Cl)c1)CO2` [Compound 36, 2,2′,2″-(10-(2-((1-(2-((3-((3-(1-(3,5-dichlorophenyl)-3-(3,3dimethylmorpholine-4-carbonyl)-7-methoxy-1,4-dihydrochromeno|4,3-clpyrazol-8-yl)phenyl)amino)-3-oxopropyl)amino)-2-oxoethyl)piperidin-4-yl)amino)-2-oxoethyl)-1,4,7,10-tetraazacyclododecane-1,4,7-triyl)triacetic acid], the EC50 was less than 10 nM.
The figure for `COc1cc2c(cc1-c1cccc(NC(=O)CCNC(=O)[C@H](CS(=O)(=O)O)NC(=O)CN3CCN(CC(=O)O)CCN(CC(=O)O)CCN(CC(=O)O)CC3)c1)-c1c(c(C(=O)N3CCOCC3(C)C)nn1-c1cc(Cl)cc(Cl)c1)CO2` [Compound 37, (R)-2,2′,2″-(10-(2-((1-((3-((3-(1-(3,5-dichlorophenyl)-3-(3,3dimethylmorpholine-4-carbonyl)-7-methoxy-1,4-dihydrochromeno|4,3-clpyrazol-8-yl)phenyl)amino)-3-oxopropyl)amino)-1-oxo-3-sulfopropan-2-yl)amino)-2-oxoethyl)-1,4,7,10-tetraazacyclododecane-1,4,7-triyl)triacetic acid] is 10 to 100 nM; for `COc1cc2c(cc1-c1cccc(NC(=O)C[C@H](O)C[C@H](O)CCNC(=O)CN3CCN(CC(=O)O)CCN(CC(=O)O)CCN(CC(=O)O)CC3)c1)-c1c(c(C(=O)N3CCOCC3(C)C)nn1-c1cc(Cl)cc(Cl)c1)CO2` [Compound 38] it is 10 to 100 nM; for `COc1cc2c(cc1-c1cccc(/C(C)=N/OCCNC(=O)CN3CCN(CC(=O)O)CCN(CC(=O)O)CCN(CC(=O)O)CC3)c1)-c1c(c(C(=O)N3CCOCC3(C)C)nn1-c1cc(Cl)cc(Cl)c1)CO2` [Compound 39] it is 10 to 100 nM.
The figure for `COc1cc2c(cc1-c1cccc(/C(C)=N/OCCNC(=O)CN3CCN(C(=O)CN4CCN(CC(=O)O)CCN(CC(=O)O)CCN(CC(=O)O)CC4)CC3)c1)-c1c(c(C(=O)N3CCOCC3(C)C)nn1-c1cc(Cl)cc(Cl)c1)CO2` [Compound 40] is 10 to 100 nM; for `COc1cc2c(cc1-c1cccc(/C(C)=N/OCCNC(=O)COCCOCCNC(=O)CN3CCN(CC(=O)O)CCN(CC(=O)O)CCN(CC(=O)O)CC3)c1)-c1c(c(C(=O)N3CCOCC3(C)C)nn1-c1cc(Cl)cc(Cl)c1)CO2` [Compound 41, (E)-2,2′,2″-(10-(1-(3-(1-(3,5-dichlorophenyl)-3-(3,3-dimethylmorpholine-4carbonyl)-7-methoxy-1,4-dihydrochromeno|4,3-c|pyrazol-8-yl)phenyl)-7,16-dioxo-3,9,12-trioxa-2,6,15-triazaheptadec-1-en-17-yl)-1,4,7,10-tetraazacyclododecane-1,4,7-triyl)triacetic acid] it is 10 to 100 nM.
The figure for `COc1cc2c(cc1-c1cccc(/C(C)=N/OCCNC(=O)CN(C)C(=O)CN(C)C(=O)CN3CCN(CC(=O)O)CCN(CC(=O)O)CCN(CC(=O)O)CC3)c1)-c1c(c(C(=O)N3CCOCC3(C)C)nn1-c1cc(Cl)cc(Cl)c1)CO2` [Compound 42, (E)-2,2′,2″-(10-(1-(3-(1-(3,5-dichlorophenyl)-3-(3,3-dimethylmorpholine-4carbonyl)-7-methoxy-1,4-dihydrochromeno|4,3-c|pyrazol-8-yl)phenyl)-9,12-dimethyl-7,10,13-trioxo-3-oxa-2,6,9,12-tetraazatetradec-1-en-14-yl)-1,4,7,10-tetraazacyclododecane-1,4,7-triyl)triacetic acid] is 10 to 100 nM; for `COc1cc2c(cc1-c1cccc(NC(=O)CONC(=O)CN3CCN(CC(=O)O)CCN(CC(=O)O)CCN(CC(=O)O)CC3)c1)-c1c(c(C(=O)N3CCOCC3(C)C)nn1-c1cc(Cl)cc(Cl)c1)CO2` [Compound 43] it is 10 to 100 nM; for `COc1cc2c(cc1-c1cccc(NC(=O)CON=C3CN(C(=O)CN4CCN(CC(=O)O)CCN(CC(=O)O)CCN(CC(=O)O)CC4)C3)c1)-c1c(c(C(=O)N3CCOCC3(C)C)nn1-c1cc(Cl)cc(Cl)c1)CO2` [Compound 44, 2,2′,2″-(10-(2-(3-((2-((3-(1-(3,5-dichlorophenyl)-3-(3,3-dimethylmorpholine-4carbonyl)-7-methoxy-1,4-dihydrochromeno|4,3-c|pyrazol-8-yl)phenyl)amino)-2-oxoethoxy)imino)azetidin-1-yl)-2-oxoethyl)-1,4,7,10-tetraazacyclododecane-1,4,7-triyl)triacetic acid] it is less than 10 nM.
With `COc1cc2c(cc1-c1cccc(NC(=O)CCC(=O)N(CCOCCOCCOCCOCCOCCC(=O)O)C3CCN(C(=O)CN4CCN(CC(=O)O)CCN(CC(=O)O)CCN(CC(=O)O)CC4)CC3)c1)-c1c(c(C(=O)N3CCOCC3(C)C)nn1-c1cc(Cl)cc(Cl)c1)CO2` [Compound 45, 2,2′,2″-(10-(2-(4-(N-(17-carboxy-3,6,9,12,15-pentaoxaheptadecyl)-4-((3-(1-(3,5dichlorophenyl)-3-(3,3-dimethylmorpholine-4-carbonyl)-7-methoxy-1,4-dihydrochromeno|4,3-clpyrazol-8-yl)phenyl)amino)-4-oxobutanamido)piperidin-1-yl)-2-oxoethyl)-1,4,7,10-tetraazacyclododecane-1,4,7-triyl)triacetic acid], the EC50 is less than 10 nM.
On to `COc1cc2c(cc1-c1cccc(NC(=O)CCC(=O)N(CC(=O)O)C3CCN(C(=O)CN4CCN(CC(=O)O)CCN(CC(=O)O)CCN(CC(=O)O)CC4)CC3)c1)-c1c(c(C(=O)N3CCOCC3(C)C)nn1-c1cc(Cl)cc(Cl)c1)CO2` [Compound 46, 2,2′,2″-(10-(2-(4-(N-(carboxymethyl)-4-((3-(1-(3,5-dichlorophenyl)-3-(3,3dimethylmorpholine-4-carbonyl)-7-methoxy-1,4-dihydrochromeno|4,3-clpyrazol-8-yl)phenyl)amino)-4-oxobutanamido)piperidin-1-yl)-2-oxoethyl)-1,4,7,10-tetraazacyclododecane-1,4,7-trivl)triacetic acid], for which the EC50 is 10 to 100 nM.

As usually defined, the EC50 is the concentration that produces a half-maximal response.
